Assay results: article PMC10603899, “Reproducibility and Robustness of a Liver Microphysiological System PhysioMimix LC12 under Varying Culture Conditions and Cell Type Combinations” (Bioengineering, 2023)
Where a name gives a salt, the structure may show the parent alone. Read-outs that look alike come from different tables or passages of the source.

How the values were obtained:
[1] = system: PHH (TF-HU8373); assay: Midazolam metabolism (1′-OH MDZ formation) in PhysioMimix LC-12, PHH monoculture; settings: 5 µM MDZ; for 1′-OH MDZ Formed, Mean ± S.D. / 1′-OH MDZ Formed, Median: PhysioMimix LC-12, PHH
[2] = system: PHH (TF-HU8373) + THP-1; assay: Midazolam metabolism (1′-OH MDZ formation) in 96-well plate, PHH + THP-1; format: in vitro ADME, human; settings: PHH + THP-1, day 2, incubation 24 h
[3] = system: PHH (various donors); parameters: method as in PMID 25068923; settings: LiverChip, day 4 of culture, estimated from figures, cited from earlier work
[4] = system: PHH (various donors); parameters: method as in PMID 27338863; settings: Suspension, day 0 of culture, incubation 0.17 h; cited from earlier work
[5] = system: PHH (TF-HU8373); assay: Midazolam metabolism (1′-OH MDZ formation) in 96-well plate, PHH; format: in vitro ADME, human; settings: day 2, incubation 24 h
Experimental: For the PHH 2D model, 96-well plates were first coated with 200 μg/mL collagen I (CB354249, Corning Inc.) and 50 μg/mL fibronectin (F1141, Sigma-Aldrich, St. Louis, MO, USA) and incubated at 37 °C, 5% CO2 for 1 h. Thawed PHHs were collected by centrifugation (100× g, 10 min), resuspended in plating media, and seeded at a density of 50,000–60,000 cells/well. After incubation overnight, the media were changed to maintenance media. The total well volume was 100 μL, and plates were incubated at 37 °C, 5% CO2, with media refreshed every 1–2 days.
After drug addition, media were collected every 2, 6, and 24 h. After 24 h, the drug treatment media were replaced with fresh maintenance media. For the experiment with pesticide mixtures, we selected chemicals from the Agency for Toxic Substances and Disease Registry Substance Priority List, which contains compounds that are commonly detected at Superfund sites and are known to be hazardous to human health. A molar-equivalent mixture was created by combining all 20 pesticides and diluting them to a final concentration of 1 or 5 μM each in dimethyl sulfoxide (DMSO, final concentration 0.5% v/v). Media was collected 48 h after treatment for the analyses detailed below. […]

[6] = system: PHH (TF-HU8373) + THP-1; assay: Midazolam metabolism (1′-OH MDZ formation) in PhysioMimix LC-12, PHH + THP-1 co-culture; format: in vitro ADME, human; settings: 5 µM MDZ
Experimental: Metabolic capacity was assessed across the various cell type conditions, including both types of hepatocytes. Midazolam (MDZ) was tested as a representative substrate for CYP3A4 [43]. Cells were treated with MDZ for up to 24 h on different days of culture, with sampling at 2, 6, and 24 h after treatment. The collected media was processed using high-performance liquid chromatography tandem mass spectrometry (HPLC-MS/MS) to determine the concentration of both the remaining parent compound (MDZ) and metabolites formed (1′-OH MDZ and 1′-OH MDZ glucuronide). We also tested the metabolism of equimolar mixtures (1 or 5 µM) of 20 pesticides that were previously used to evaluate the metabolic competence of different in vitro liver models. Cells were treated on day 6 of culture, and media were collected for analysis 48 h thereafter. Samples were analyzed using either gas chromatography (GC)-MS/MS or HPLC-MS/MS to determine whether parent molecule concentrations diminished, consistent with the metabolic activity of the cells.
The day when PHHs were seeded into PhysioMimix LC12 plates was defined as day 0 (Figure 1). PHHs were cultured in the PhysioMimix LC12 following the manufacturer’s protocols. PHHs were thawed into CHRM (CM7000, Thermo Fisher), centrifuged at 100× g for 10 min, resuspended in plating media, and then seeded into the PhysioMimix LC12 scaffold at a seeding density of 475,000–600,000 cells/chip. The flow was initiated at 1 µL/s.
For co-culture conditions, THP-1 monocytes and HMEC-1 endothelial cells were seeded either on day 0 or 1 at a seeding density of 60,000–160,000 cells/chip or 60,000 cells/chip, respectively. Primary KCs, HSCs, and LSECs were seeded either on day 0 or 1 at a seeding density of 100,000 cells/chip, 35,000 cells/chip, and 70,000–140,000 cells/chip, respectively. Cell seeding ratios were determined based on previous experiments or reports of the physiological cell ratios in the human liver. Media were collected and exchanged every 1–3 days by aspirating and replacing media from the media reservoir (1.8 mL/chip).
(§1) For evaluation of MDZ metabolism, cells were exposed on days 4–16 of culture to 5 µM MDZ (dissolved in methanol for the final concentration of 0.16% v/v). After drug addition, media were collected every 2, 6, and 24 h. After 24 h, the drug treatment media were replaced with fresh maintenance media. For the experiment with pesticide mixtures, we selected chemicals from the Agency for Toxic Substances and Disease Registry Substance Priority List, which contains compounds that are commonly detected at Superfund sites and are known to be hazardous to human health. A molar-equivalent mixture was created by combining all 20 pesticides and diluting them to a final concentration of 1 or 5 μM each in dimethyl sulfoxide (DMSO, final concentration 0.5% v/v). Media was collected 48 h after treatment for the analyses detailed below. For evaluation of immune-mediated toxicity with Trovafloxacin and LPS treatment, PHHs + THP-1 monocytes or PHHs + KCs were exposed on day 6 of culture to 25 or 100 µM of Trovafloxacin, with or without LPS. After 48 h, the drug treatment media were collected for biochemical assays detailed below.
After treatment with MDZ or pesticide mixtures (Supplemental Table S3), 50 µL media samples were mixed with 100 µL of 0.1 or 1 µM internal standard (Caffeine-13C3, C-082, Millipore Sigma; Supplemental Table S3) solution in acetonitrile on ice, respectively. Samples were vortexed and centrifuged (12,000× g, 10 min, room temperature) to allow for protein precipitation. The supernatant was collected from each sample, dried under vacuum, and reconstituted in 50 µL aqueous mobile phase. The reconstituted samples were transferred to glass autosampler vials with 200 µL inserts and stored at −20 °C prior to HPLC-MS/MS analysis. […]

[7] = system: PHHs (donor HU8373) + Kupffer cells; assay: Immune-mediated toxicity, trovafloxacin ± LPS in PhysioMimix LC12, PHH + Kupffer cells; format: cell-based; settings: 48 h
Experimental: as §1
(§2) Cell culture media was collected every time media was exchanged (Figure 1) and stored frozen at −80 °C until analyses for various biomarkers, including albumin, urea, lactate dehydrogenase (LDH), and human interleukin-6 (IL-6). The ELISA assays for albumin (E88-129, Bethyl Laboratories, Montgomery, TX, USA), urea (EIABUN, ThermoFisher), LDH (ab102526, Abcam, Cambridge, UK), and IL-6 (D6050, R&D Systems) were conducted using manufacturer’s instructions. For CYP3A4 activity, the P450 Glo 3A4 with Luciferin-IPA assay (V9001, Promega, Madison, WI, USA) was used; this is a live cell assay, and it was conducted according to the manufacturer’s instructions as follows. The Luciferin-IPA substrate was diluted 1:1000 in maintenance media and added to chips or wells 1 h prior to reading luminescence using a plate reader (SpectraMax iD3, Molecular Devices, San Jose, CA, USA). After the assay, the media was replaced.
(§3) The last series of experiments was conducted to examine whether a co-culture of PHHs and NPCs in the PhysioMimix LC12 could model immune-mediated effects. […] We examined two conditions of use: HU8373 PHH with either THP-1 cells or Kupffer cells (Figure 8). Treatments (25 or 100 μM trovafloxacin) were added on […] with or without LPS (1 μg/mL) (Figure 1H) to replicate a well-established model of immune-mediated hepatotoxicity. We examined LDH leakage as a marker of cytotoxicity, CYP3A4 activity, and IL-6 secretion into the media as a marker of pro-inflammatory response. […] Few effects on CYP3A4 were observed, albeit inter-experimental variability was high (Figure 8B).
Figure 8 Immune-mediated toxicity in the PhysioMimix LC12. […]

[8] = system: PHHs (donor HU8373) + THP-1 cells; assay: Immune-mediated toxicity, trovafloxacin ± LPS in PhysioMimix LC12, PHH + THP-1; format: cell-based; settings: 48 h
Experimental: as §1, §2, §3
Figure 8 Immune-mediated toxicity in the PhysioMimix LC12. Changes in LDH, CYP3A4, and IL-6 after 48 h trovafloxacin exposure with and without LPS in the PhysioMimix LC12 seeded with PHHs (donor HU8373) and non-parenchymal cells (THP-1 cells or Kupffer cells). (A) LDH leakage, (B) CYP3A4 activity, and (C) IL-6 release. Endpoints were normalized to the mean of the pretreatment samples (day 6 of the experiment). Data are plotted as box (interquartile range) and whiskers (min-max) with all individual values shown (n = 2–12). […] Brackets indicate statistical significance between groups at p < 0.05 by two-way ANOVA with Tukey’s multiple comparisons test.

[9] = PhysioMimix LC-12, PHH + THP-1, day 6, incubation 2 h
[10] = PhysioMimix LC-12, PHH + THP-1, day 6, incubation 24 h
[11] = PhysioMimix LC-12, PHH + THP-1, day 12, incubation 24 h
[12] = 25 and 100 μM trovafloxacin + LPS (1 μg/mL)
[13] = 25 or 100 μM trovafloxacin with or without LPS (1 μg/mL)

Compound: Cc1ncc2n1-c1ccc(Cl)cc1C(c1ccccc1F)=NC2 [midazolam, Midazolam]
- Midazolam metabolism over time in culture ([1]; PhysioMimix LC12, HU8373 PHH, different cell combinations, 24 h): remained consistent over time

Compound: OCc1ncc2n1-c1ccc(Cl)cc1C(c1ccccc1F)=NC2 [1′-OH-midazolam, 1-hydroxymidazolam]
- 1′-OH MDZ Formed, Mean ± S.D. ([1]; day 6, incubation 2 h): 2.72 ± 1.75 pmol/min/1 M Hep.
- 1′-OH MDZ Formed, Median ([1]; day 6, incubation 2 h): 2.33 pmol/min/1 M Hep.
- 1′-OH MDZ Formed, Mean ± S.D. ([1]; day 6, incubation 24 h): 0.610 ± 0.403 pmol/min/1 M Hep.
- 1′-OH MDZ Formed, Median ([1]; day 6, incubation 24 h): 0.561 pmol/min/1 M Hep.
- 1′-OH MDZ Formed, Mean ± S.D. ([1]; day 12, incubation 24 h): 0.753 ± 0.612 pmol/min/1 M Hep.
- 1′-OH MDZ Formed, Median ([1]; day 12, incubation 24 h): 0.649 pmol/min/1 M Hep.
- 1′-OH MDZ Formed, Mean ± S.D. [2]: 0.088 ± 0.077 pmol/min/1 M Hep.
- 1′-OH MDZ Formed, Median [2]: 0.061 pmol/min/1 M Hep.
- 1′-OH MDZ Formed, Mean ± S.D. ([3]; incubation 2 h): 4.55 ± 2.27 pmol/min/1 M Hep.
- 1′-OH MDZ Formed, Mean ± S.D. ([3]; incubation 24 h): 0.216 ± 0.054 pmol/min/1 M Hep.
- 1′-OH MDZ Formed, Mean ± S.D. [4]: 100 ± 106 pmol/min/1 M Hep.
- 1′-OH MDZ Formed, Median [4]: 63.7 pmol/min/1 M Hep.
- 1′-OH MDZ Formed, Mean ± S.D. [5]: 0.163 ± 0.064 pmol/min/1 M Hep.
- 1′-OH MDZ Formed, Median [5]: 0.189 pmol/min/1 M Hep.
- 1′-OH MDZ Formed, Mean ± S.D. [6, 9]: 2.54 ± 1.64 pmol/min/1 M Hep.
- 1′-OH MDZ Formed, Median [6, 9]: 2.11 pmol/min/1 M Hep.
- 1′-OH MDZ Formed, Mean ± S.D. [6, 10]: 0.836 ± 0.556 pmol/min/1 M Hep.
- 1′-OH MDZ Formed, Median [6, 10]: 0.997 pmol/min/1 M Hep.
- 1′-OH MDZ Formed, Mean ± S.D. [6, 11]: 0.971 ± 0.910 pmol/min/1 M Hep.
- 1′-OH MDZ Formed, Median [6, 11]: 0.933 pmol/min/1 M Hep.

Compound: Lipopolysaccharide [LPS]
- IL-6 secretion into the media ([7]; LPS alone (1 μg/mL)): Increases
- IL-6 secretion into the media ([8]; LPS alone (1 μg/mL)): Increases

Compound: N[C@@H]1[C@H]2CN(c3nc4c(cc3F)c(=O)c(C(=O)O)cn4-c3ccc(F)cc3F)C[C@@H]12 [trovafloxacin, Trovafloxacin mesylate]
- IL-6 secretion into the media ([7]; 100 μM trovafloxacin): Increases
- Potentiating effect of LPS on trovafloxacin (IL-6 release) [7, 12]: significant potentiating effect
- Effect on CYP3A4 activity [7, 13]: Few effects
- IL-6 secretion into the media ([8]; 100 μM trovafloxacin): Increases
- Potentiating effect of LPS on trovafloxacin (IL-6 release) [8, 12]: not THP-1 cells
- Effect on CYP3A4 activity [8, 13]: Few effects
- LDH leakage as compared to pre-treatment levels [8, 13]: Significant increases
